# Patent publication US6767533B1, “Use of a substance binding with the peripheral benzodiazepin receptor for treating skin stress” (Sanofi-Synthelabo, priority 1998, dated 2004)
# Like-named read-outs stand apart in the source and are kept apart here.
# Legend:
# [1] = target: T1, peripheral benzodiazepine receptor (PBR) (Homo sapiens, UniProt P30536); experiment: Binding studies on keratinocyte line A-431 by displacement of [3H]-PK11195
# T1 construct: the peripheral receptor borne by the keratinocytes; host or cells: A-431 human epidermoid carcinoma keratinocyte line
# human keratinocytes = experiment: Protection of keratinocytes against UVB-induced cell impairment (apoptosis ELISA); type: cell-based; conditions: UVB 250 J/m^2 for 16 hours, ligand concentration range between 10 nM and 10 μm
# Description: The anti-apoptotic activity of the active agents was measured on human keratinocytes and on fibroblasts (ATCC) which were inoculated in 35 mm Petri dishes (5×10^5 cells/well) in DMEM (Dubelco's Mode Eagle Medium) supplemented with 10% fetal calf serum and left to proliferate to the point of confluence. This culture medium is then drawn off, the cells are rinsed and 0.1% fetal calf serum is added in the presence of a saline solution. Increasing concentrations of the substance to be studied are added. Twenty four hours later, the apoptosis is measured with an ELISA (enzyme-linked immunosorbent assay) assay kit.
# Keratinocytes were subjected to ultraviolet radiation of type B (UVB) at a dose of 250 J/m^2 for 16 hours (J. Invest. Dermatol. 1995, 104: 922-927). In the presence of the PBR ligand Ro 5-4864, it was shown that the cell impairment processes induced by the irradiation are prevented in a ligand concentration range of between 10 nM and 10 μm.
# T1 sequence (P30536 whole entry): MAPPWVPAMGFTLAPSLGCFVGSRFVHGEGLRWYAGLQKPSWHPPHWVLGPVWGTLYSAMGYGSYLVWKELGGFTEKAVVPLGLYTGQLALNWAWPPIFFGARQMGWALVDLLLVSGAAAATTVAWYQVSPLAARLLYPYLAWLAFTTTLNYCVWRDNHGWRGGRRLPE
compound,measurement,setting,value
O=C1CN=C(c2ccccc2Cl)c2cc([N+](=O)[O-])ccc2N1 [clonazepam],displacement of the reference peripheral ligand PK 11195,"[1]; A-431 keratinocyte line, at 3 200 nM",inactive
"CN1C(=O)CN=C(c2ccc(Cl)cc2)c2cc(Cl)ccc21 [Ro 5-4864, chlorodiazepam]",IC50,"[1]; A-431 keratinocyte line, read-out: IC50, displacement of the reference peripheral ligand PK 11195",~25 nM
same,cell impairment processes induced by UVB irradiation,human keratinocytes,prevented
CN1C(=O)CN=C(c2ccccc2)c2cc(Cl)ccc21 [diazepam],IC50,[1],~100 nM
